From BindingDB's records for doi:10.1016/j.bmcl.2008.03.029 (Gifu University, 2008)

Test: Inhibition of human recombinant SAHH at 1000 uM

IC50: 18 µM
SMILES: Nc1ncnc2c1ncn2[C@@H]1CC[C@@H](O)[C@H]1O [(1R,2S,3R)-3-(6-amino-9H-purin-9-yl)cyclopentane-1,2-diol]
